US8772323B2, “Benzoxazole- and tetrahydrobenzoxazole-substituted pyridazinones as GPR119 agonists” (Boehringer Ingelheim International GmbH, priority 2010, dated 2014)

How the values were obtained:
human GPR119 = human GPR119 (Homo sapiens (Human), UniProt Q8TDV5); assay: AlphaScreen cAMP assay in Min-6/hGPR119 cells (GPR119 activation, intracellular cAMP); assay type: cell-based; conditions: MIN6 cells stably transfected with human GPR119; 45 minutes' incubation at RT; AlphaScreen cAMP Assay Kit
Sequence of human GPR119 (Q8TDV5 whole entry): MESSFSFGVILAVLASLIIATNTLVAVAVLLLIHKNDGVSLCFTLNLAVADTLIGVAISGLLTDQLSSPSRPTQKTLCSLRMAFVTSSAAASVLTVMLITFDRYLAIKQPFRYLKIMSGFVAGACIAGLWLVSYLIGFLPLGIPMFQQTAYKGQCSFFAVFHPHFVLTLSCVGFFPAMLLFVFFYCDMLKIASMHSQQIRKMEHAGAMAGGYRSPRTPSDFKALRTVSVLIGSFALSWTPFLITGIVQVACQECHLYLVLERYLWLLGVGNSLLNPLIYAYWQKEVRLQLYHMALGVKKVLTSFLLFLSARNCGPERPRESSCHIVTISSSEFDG
In short: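 MIN6 cells stably expressing human GPR119 plated 10000 cells/well and held 24 h at 37° C. Compounds applied in stimulating buffer, pH 7.4, with 0.5 mM IBMX, 0.1% BSA, 1% DMSO final, for 45 min at RT. Intracellular cAMP read by AlphaScreen.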

Structure (SMILES)	melting point	EC50 (human GPR119)
CCOC(=O)N1CCN(c2nc3ccc(C4=NNC(=O)CC4C)cc3o2)CC1 (stereo not shown) [Example 114, ethyl 4-[6-(4-methyl-6-oxo-1,4,5,6-tetrahydro-pyridazin-3-yl)-benzoxazol-2-yl]-piperazine-1-carboxylate]	239 °C	2.29 µM
CC1CC(=O)NN=C1c1ccc2nc(N3CCOCC3)oc2c1 (stereo not shown) [Example 116, 5-methyl-6-(2-morpholine-1-yl-benzoxazol-6-yl)-4,5-dihydro-2H-pyridazin-3-one]	209 °C	3.45 µM
CC1CC(=O)NN=C1c1ccc2nc(N3CCNCC3)oc2c1 (stereo not shown) [Example 117, 5-methyl-6-(2-piperazin-1-yl-benzoxazol-6-yl)-4,5-dihydro-2H-pyridazin-3-one]	213 °C	9.39 µM
CC1CC(=O)NN=C1c1ccc2nc(-c3ccc(N)nc3)oc2c1 (stereo not shown) [Example 109, 6-[2-(6-amino-pyridin-3-yl)-benzoxazol-6-yl]-5-methyl-4,5-dihydro-2H-pyridazin-3-one]	293 °C	1.41 µM
CC1CC(=O)NN=C1c1ccc2nc(N3CCCCC3)oc2c1 (stereo not shown) [Example 115, 5-methyl-6-(2-piperidin-1-yl-benzoxazol-6-yl)-4,5-dihydro-2H-pyridazin-3-one]	235 °C	1.13 µM
CC1CC(=O)NN=C1c1ccc2nc(-c3cccnc3)oc2c1 (stereo not shown) [Example 110, 5-methyl-6-(2-pyridin-3-yl-benzoxazol-6-yl)-4,5-dihydro-2H-pyridazin-3-one]	218 °C	4.54 µM
CC1CC(=O)NN=C1c1ccc2nc(-c3ccc(Cl)nc3Cl)oc2c1 (stereo not shown) [Example 120, 6-[2-(2,6-dichloro-pyridin-3-yl)-benzoxazol-6-yl]-5-methyl-4,5-dihydro-2H-pyridazin-3-one]	268 °C	1.34 µM
CC1CC(=O)NN=C1c1ccc2nc(-c3ccco3)oc2c1 (stereo not shown) [Example 108, 5-methyl-6-(2-furan-2-yl-benzoxazol-6-yl)-4,5-dihydro-2H-pyridazin-3-one]	209 °C	0.346 µM
CC1CC(=O)NN=C1c1ccc2nc(-c3ccc(N4CCOCC4)nc3Cl)oc2c1 (stereo not shown) [Example 121, 6-[2-(2-chloro-6-morpholin-4-yl-pyridin-3-yl)-benzoxazol-6-yl]-5-methyl-4,5-dihydro-2H-pyridazin-3-one]	236 °C	0.379 µM
CC1CC(=O)NN=C1c1ccc2nc(N3CCSCC3)oc2c1 (stereo not shown) [Example 113, 5-methyl-6-(2-thiomorpholin-4-yl-benzoxazol-6-yl)-4,5-dihydro-2H-pyridazin-3-one]	218 °C	1.9 µM
CC1CC(=O)NN=C1c1ccc2nc(-c3cccs3)oc2c1 (stereo not shown) [Example 106, 5-methyl-6-(2-thiophen-2-yl-benzoxazol-6-yl)-4,5-dihydro-2H-pyridazin-3-one]	222 °C	0.12 µM
CC[C@@H]1CC(=O)NN=C1c1ccc2nc(-c3ccc(OCC(C)N4CCCCC4)cc3)oc2c1 (stereo partly drawn) [Example 237, 5(R)-ethyl-6-{2-[4-(2-piperidin-1-yl-propoxy)-phenyl]-benzoxazol-6-yl}-4,5-dihydro-2H-pyridazin-3-one]	–	0.073 µM
Cc1cc(=O)[nH]nc1-c1ccc2nc(-c3cccs3)oc2c1 [Example 256, 5-methyl-6-(2-thiophen-2-yl-benzoxazol-6-yl)-2H-pyridazin-3-one]	–	9.38 µM
CCC1CC(=O)NN=C1c1ccc2nc(-c3cccc(OCc4cccnc4)c3)oc2c1 (stereo not shown) [Example 45, 5-ethyl-6-{2-[3-(pyridin-3-ylmethoxy)-phenyl]-benzoxazol-6-yl}-4,5-dihydro-2H-pyridazin-3-one]	–	0.807 µM
CCC1CC(=O)NN=C1c1ccc2nc(-c3ccc(OCC(C)O)cc3)oc2c1 (stereo not shown) [Example 211, 5-ethyl-6-{2-[4-(2-hydroxy-propoxy)-phenyl]-benzoxazol-6-yl}-4,5-dihydro-2H-pyridazin-3-one]	–	0.395 µM
CCC1CC(=O)NN=C1c1ccc2nc(-c3cc(C)cs3)oc2c1 (stereo not shown) [Example 97, 5-ethyl-6-[2-(4-methyl-thiophen-2-yl)-benzoxazol-6-yl]-4,5-dihydro-2H-pyridazin-3-one]	–	0.225 µM
CCC1CC(=O)NN=C1c1ccc2nc(-c3ccc(OCc4ccc(S(C)(=O)=O)cc4)cc3)oc2c1 (stereo not shown) [Example 158, 5-ethyl-6-{2-[4-(4-methanesulphonyl-benzoxy)-phenyl]-benzoxazol-6-yl}-4,5-dihydro-2H-pyridazin-3-one]	–	1.96 µM
CCC1CC(=O)NN=C1c1ccc2nc(-c3ccc(OC4CCCCCN4C)cc3)oc2c1 (stereo not shown) [Example 234, 5-ethyl-6-{2-[4-(1-methyl-2-azepan-2-yloxy)-phenyl]-benzoxazol-6-yl}-4,5-dihydro-2H-pyridazin-3-one]	–	0.306 µM
CCC1CC(=O)NN=C1c1ccc2nc(-c3cccc(OCCN4C(C)(C)CCCC4(C)C)c3)oc2c1 (stereo not shown) [Example 151, 5-ethyl-6-(2-{3-[2-(2,2,6,6-tetramethyl-piperidin-1-yl)-ethoxy]-phenyl}-benzoxazol-6-yl)-4,5-dihydro-2H-pyridazin-3-one]	–	0.116 µM
CCC1CC(=O)NN=C1c1ccc2nc(-c3ccc(OC4CCCC4)cc3)oc2c1 (stereo not shown) [Example 176, 6-[2-(4-cyclopentyloxy-phenyl)-benzoxazol-6-yl]-5-ethyl-4,5-dihydro-2H-pyridazin-3-one]	–	0.082 µM
